In ChEMBL document CHEMBL5465560, “Selectivity Literature for EUbOPEN Chemogenomic Library” (2024):

Legend:
[1] = biological target: Bromodomain testis-specific protein (Homo sapiens) (UniProt Q58F21); assay: Selectivity interaction (Human bromodomain panel (DSF assay)) EUB0000233b BRDT
[2] = biological target: T1, Myosin-IIIb (Homo sapiens) (UniProt Q8WXR4); assay: Selectivity interaction (KinomeScan (DiscoverX)) EUB0000695a MYO3B; conditions: at 100 nM
T1 sequence (whole entry): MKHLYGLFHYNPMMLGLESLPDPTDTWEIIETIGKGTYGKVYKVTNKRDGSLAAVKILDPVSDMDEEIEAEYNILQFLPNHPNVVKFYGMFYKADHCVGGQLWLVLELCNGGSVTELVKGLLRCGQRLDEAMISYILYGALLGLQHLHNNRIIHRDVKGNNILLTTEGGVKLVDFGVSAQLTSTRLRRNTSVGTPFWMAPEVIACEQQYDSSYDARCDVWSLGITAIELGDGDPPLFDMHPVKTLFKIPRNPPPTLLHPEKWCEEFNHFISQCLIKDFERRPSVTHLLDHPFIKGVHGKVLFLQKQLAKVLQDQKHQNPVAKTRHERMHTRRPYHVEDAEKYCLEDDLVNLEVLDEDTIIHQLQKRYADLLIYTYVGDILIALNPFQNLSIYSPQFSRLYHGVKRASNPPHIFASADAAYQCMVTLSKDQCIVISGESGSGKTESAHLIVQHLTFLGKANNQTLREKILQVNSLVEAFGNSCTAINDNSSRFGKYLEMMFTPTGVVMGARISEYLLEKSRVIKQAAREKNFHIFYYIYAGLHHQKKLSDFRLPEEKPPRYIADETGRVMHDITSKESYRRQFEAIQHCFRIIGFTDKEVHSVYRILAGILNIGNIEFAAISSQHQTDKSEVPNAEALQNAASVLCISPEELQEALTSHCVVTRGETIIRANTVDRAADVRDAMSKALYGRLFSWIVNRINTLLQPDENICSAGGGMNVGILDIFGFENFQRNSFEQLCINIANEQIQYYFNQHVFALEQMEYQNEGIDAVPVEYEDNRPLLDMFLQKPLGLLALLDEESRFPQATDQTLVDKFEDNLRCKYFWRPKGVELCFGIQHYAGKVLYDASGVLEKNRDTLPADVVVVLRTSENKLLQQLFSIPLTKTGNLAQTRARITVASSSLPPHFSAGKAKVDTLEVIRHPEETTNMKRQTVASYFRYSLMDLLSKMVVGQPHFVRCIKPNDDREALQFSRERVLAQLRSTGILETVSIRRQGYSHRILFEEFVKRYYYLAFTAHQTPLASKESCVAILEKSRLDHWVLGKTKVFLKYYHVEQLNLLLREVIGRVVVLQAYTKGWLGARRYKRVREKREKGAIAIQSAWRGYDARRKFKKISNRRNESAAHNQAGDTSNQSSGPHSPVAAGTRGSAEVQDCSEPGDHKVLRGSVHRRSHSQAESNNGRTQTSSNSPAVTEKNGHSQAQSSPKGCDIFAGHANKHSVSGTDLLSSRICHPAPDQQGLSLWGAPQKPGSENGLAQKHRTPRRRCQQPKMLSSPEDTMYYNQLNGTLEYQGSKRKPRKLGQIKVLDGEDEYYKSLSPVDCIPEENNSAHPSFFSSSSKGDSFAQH

[3] = biological target: T2, Serine/threonine-protein kinase TAO3 (Homo sapiens) (UniProt Q9H2K8); conditions: at 10 µM
T2 sequence (whole entry): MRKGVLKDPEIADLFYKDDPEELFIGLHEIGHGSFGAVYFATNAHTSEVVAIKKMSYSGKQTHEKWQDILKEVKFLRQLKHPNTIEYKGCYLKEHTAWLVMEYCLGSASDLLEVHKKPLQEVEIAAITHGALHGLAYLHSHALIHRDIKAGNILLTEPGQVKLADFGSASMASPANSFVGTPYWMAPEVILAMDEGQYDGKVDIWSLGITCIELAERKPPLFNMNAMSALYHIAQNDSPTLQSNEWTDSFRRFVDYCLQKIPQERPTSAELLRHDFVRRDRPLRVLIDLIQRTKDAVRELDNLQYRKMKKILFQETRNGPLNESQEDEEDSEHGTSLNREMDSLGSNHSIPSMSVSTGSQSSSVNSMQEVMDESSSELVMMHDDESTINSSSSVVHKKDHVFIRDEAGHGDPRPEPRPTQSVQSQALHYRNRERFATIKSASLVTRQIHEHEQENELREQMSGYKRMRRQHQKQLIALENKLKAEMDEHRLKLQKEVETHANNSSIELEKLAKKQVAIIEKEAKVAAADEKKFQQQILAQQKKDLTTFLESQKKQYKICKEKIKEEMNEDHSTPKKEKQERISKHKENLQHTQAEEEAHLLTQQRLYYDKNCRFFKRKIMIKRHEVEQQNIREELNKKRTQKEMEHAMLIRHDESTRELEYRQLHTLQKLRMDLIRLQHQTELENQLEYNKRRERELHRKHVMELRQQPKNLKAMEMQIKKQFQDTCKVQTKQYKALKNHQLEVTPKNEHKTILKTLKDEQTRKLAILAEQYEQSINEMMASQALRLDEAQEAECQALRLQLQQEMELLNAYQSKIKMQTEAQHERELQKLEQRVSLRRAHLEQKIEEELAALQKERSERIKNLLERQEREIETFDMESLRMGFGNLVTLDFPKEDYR

[4] = biological target: 5'-AMP-activated protein kinase catalytic subunit alpha-1 (Homo sapiens, UniProt Q13131); assay: Selectivity interaction (KinomeScan (DiscoverX)) EUB0001619a PRKAA1; conditions: at 1 µM
[5] = biological target: AP2-associated protein kinase 1 (Homo sapiens, UniProt Q2M2I8); conditions: at 10 µM
[6] = biological target: T3, Aurora kinase C (Homo sapiens) (UniProt Q9UQB9); conditions: at 10 µM
T3 sequence (whole entry): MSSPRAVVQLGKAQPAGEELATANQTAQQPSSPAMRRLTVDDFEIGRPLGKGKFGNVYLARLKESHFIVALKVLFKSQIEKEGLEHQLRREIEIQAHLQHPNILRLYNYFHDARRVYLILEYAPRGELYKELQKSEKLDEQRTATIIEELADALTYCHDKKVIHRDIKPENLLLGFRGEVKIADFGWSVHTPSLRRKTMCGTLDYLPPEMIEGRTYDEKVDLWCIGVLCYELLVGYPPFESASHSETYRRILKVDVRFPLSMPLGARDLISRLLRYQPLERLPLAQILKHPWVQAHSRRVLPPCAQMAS

[7] = biological target: Serine/threonine-protein kinase SBK1 (Homo sapiens) (UniProt Q52WX2); assay: Selectivity interaction (KinomeScan (DiscoverX)) EUB0000092b SBK1; conditions: at 10 µM
Serine/threonine-protein kinase SBK1 (Homo sapiens), sequence (Q52WX2 whole entry): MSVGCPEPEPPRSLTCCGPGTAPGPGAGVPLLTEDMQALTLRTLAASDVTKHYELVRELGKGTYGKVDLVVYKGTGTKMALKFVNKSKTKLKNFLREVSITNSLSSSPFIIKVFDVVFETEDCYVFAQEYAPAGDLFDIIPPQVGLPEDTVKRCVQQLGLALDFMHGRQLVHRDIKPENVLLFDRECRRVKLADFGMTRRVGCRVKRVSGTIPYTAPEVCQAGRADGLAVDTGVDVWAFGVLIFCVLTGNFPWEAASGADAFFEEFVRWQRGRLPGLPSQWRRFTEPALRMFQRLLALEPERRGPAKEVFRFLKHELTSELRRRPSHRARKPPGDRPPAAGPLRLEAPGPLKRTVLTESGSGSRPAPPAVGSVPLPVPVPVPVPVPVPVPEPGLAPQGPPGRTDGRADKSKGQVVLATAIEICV

5'-AMP-activated protein kinase catalytic subunit alpha-1, sequence (Q13131 whole entry, looked up): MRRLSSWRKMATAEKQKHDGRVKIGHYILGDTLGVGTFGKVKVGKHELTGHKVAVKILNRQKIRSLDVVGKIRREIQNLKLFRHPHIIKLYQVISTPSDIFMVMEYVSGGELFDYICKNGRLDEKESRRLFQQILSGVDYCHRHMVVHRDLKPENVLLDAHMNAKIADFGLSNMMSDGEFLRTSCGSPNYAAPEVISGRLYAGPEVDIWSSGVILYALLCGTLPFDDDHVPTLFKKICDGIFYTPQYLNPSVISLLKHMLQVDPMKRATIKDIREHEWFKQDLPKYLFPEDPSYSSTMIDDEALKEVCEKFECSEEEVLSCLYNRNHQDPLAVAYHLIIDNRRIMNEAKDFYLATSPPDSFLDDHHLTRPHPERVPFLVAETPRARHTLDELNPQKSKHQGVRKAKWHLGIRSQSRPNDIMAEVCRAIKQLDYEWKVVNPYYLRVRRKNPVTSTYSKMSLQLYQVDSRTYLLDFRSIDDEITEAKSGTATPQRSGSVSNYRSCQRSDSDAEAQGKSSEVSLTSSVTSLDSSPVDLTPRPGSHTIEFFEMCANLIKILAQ
AP2-associated protein kinase 1, sequence (Q2M2I8 whole entry, looked up): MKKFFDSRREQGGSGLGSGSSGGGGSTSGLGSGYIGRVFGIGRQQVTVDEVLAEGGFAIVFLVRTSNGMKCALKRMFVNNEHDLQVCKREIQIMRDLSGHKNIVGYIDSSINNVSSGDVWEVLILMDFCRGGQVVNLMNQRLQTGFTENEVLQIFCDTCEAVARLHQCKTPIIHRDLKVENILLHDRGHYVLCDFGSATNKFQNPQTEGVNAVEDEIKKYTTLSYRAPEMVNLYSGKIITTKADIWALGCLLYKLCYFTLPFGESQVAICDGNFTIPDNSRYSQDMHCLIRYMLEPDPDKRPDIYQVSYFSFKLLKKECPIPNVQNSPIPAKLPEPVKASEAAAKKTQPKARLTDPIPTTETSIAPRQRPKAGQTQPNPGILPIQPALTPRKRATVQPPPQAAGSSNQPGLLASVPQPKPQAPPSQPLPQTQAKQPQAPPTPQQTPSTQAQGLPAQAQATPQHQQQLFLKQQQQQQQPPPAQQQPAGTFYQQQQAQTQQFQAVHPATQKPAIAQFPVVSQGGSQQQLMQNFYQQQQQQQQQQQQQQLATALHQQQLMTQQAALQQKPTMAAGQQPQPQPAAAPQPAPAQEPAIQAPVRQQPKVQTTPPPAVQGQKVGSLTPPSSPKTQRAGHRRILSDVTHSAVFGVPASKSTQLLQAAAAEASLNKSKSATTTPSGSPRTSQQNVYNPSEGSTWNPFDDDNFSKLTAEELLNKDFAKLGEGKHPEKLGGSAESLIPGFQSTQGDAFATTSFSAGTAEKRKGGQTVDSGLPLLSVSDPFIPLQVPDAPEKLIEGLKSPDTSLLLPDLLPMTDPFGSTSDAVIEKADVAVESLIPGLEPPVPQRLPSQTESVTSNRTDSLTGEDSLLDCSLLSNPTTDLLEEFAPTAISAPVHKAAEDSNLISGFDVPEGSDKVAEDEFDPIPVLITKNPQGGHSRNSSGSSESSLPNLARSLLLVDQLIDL

SMILES: CN(C)CCCOc1ccc(-c2cc(NCCCn3cccn3)nc(S(C)(=O)=O)n2)cc1
- dTM [1]: < 2 K

SMILES: Cc1cc(F)c(C(=O)Nc2cccc(-c3nncn3C(C)C)n2)cc1-n1cnc(C2CC2)c1
- % of control [2]: 80%

SMILES: Cc1cc([C@@H](C)Nc2ccccc2C(=O)O)c2nc(N3CCOCC3)cc(=O)n2c1 [AZD-6482]
- % of control [3]: 100%

SMILES: N#Cc1cccc(-c2c[nH]c3ncnc(N4CCOCC4)c23)c1
- % of control [4]: 71%

SMILES: CCN(CC)CCCCNc1ncc2cc(-c3cc(OC)cc(OC)c3)c(NC(=O)NC(C)(C)C)nc2n1
- % of control [5]: 100%
- % of control [6]: 100%

SMILES: CCC(=O)N1CCN(c2ccc(-n3c(=O)ccc4cnc5ccc(-c6cnc7ccccc7c6)cc5c43)cc2C(F)(F)F)CC1
- % of control [7]: 88%
